# Results from patent publication US8394848B2, “Compounds that modulate intracellular calcium” (Calcimedica, Inc., priority 2008, dated 2013).
# Test system: JR251 or RBL cells
# Experiment: Store-operated calcium entry, either JR251 or RBL cells, or both
# Format: cell-based
# Summary of the method: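 FLIPR calcium-entry readout in fluo-4-loaded cells held in Ca2+-free HBSS before calcium add-back. For RBL-2H3, store depletion used thapsigargin for 25 min after a 5 min compound pre-incubation, and IC50 was based on the 7 s Upslope. For Orai1/STIM1 stable cells, compound was pre-incubated 30 min and IC50 was based on Peak-Basal.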
row,IC50,Structure (SMILES)
1,< 10 µM,O=C(CCc1ccccc1)Nc1scc(-c2ccc(Cl)cc2F)c1C(=O)O [4-(4-chloro-2-fluorophenyl)-2-(3-phenylpropanamido)thiophene-3-carboxylic acid]
2,< 10 µM,"Cc1cccc2nc(C(=O)Nc3scc(-c4ccc(Cl)cc4)c3C(=O)O)c(F)n12 [4-(4-chlorophenyl)-2-(3-fluoro-5-methylimidazo[1,2-a]pyridine-2-carboxamido)thiophene-3-carboxylic acid]"
3,< 10 µM,O=C(Nc1scc(OC(=O)c2cc3ccccc3o2)c1C(=O)O)OCc1ccccc1 [4-(benzofuran-2-carbonyloxy)-2-(benzyloxycarbonylamino)thiophene-3-carboxylic acid]
4,< 10 µM,O=C(Nc1scc(-c2ccc(Cl)c(F)c2)c1C(=O)O)c1nc2cccc(F)c2o1 [4-(4-chloro-3-fluorophenyl)-2-(7-fluorobenzo[d]oxazole-2-carboxamido)thiophene-3-carboxylic acid]
5,< 10 µM,O=C(O)c1c(-c2ccc(Cl)cc2)csc1NC(=O)[C@@H](F)Cc1ccccc1Cl [(S)-4-(4-chlorophenyl)-2-(3-(2-chlorophenyl)-2-fluoropropanamido)thiophene-3-carboxylic acid]
6,< 10 µM,"O=C(Nc1scc(-c2ccc(Cl)cc2)c1C(=O)O)c1cc2occc2[nH]1 [4-(4-chlorophenyl)-2-(4H-furo[3,2-b]pyrrole-5-carboxamido)thiophene-3-carboxylic acid]"
7,< 10 µM,"O=C(O)c1c(-c2ccc(Cl)cc2)csc1NC(=O)C1Cc2ccccc2C1 [4-(4-chlorophenyl)-2-(2,3-dihydro-1H-indene-2-carboxamido)thiophene-3-carboxylic acid]"
8,< 10 µM,"O=C(Nc1scc(-c2ccc(Cl)cc2)c1C(=O)O)c1cc(Cl)sc1Cl [4-(4-chlorophenyl)-2-(2,5-dichlorothiophene-3-carboxamido)thiophene-3-carboxylic acid]"
9,< 10 µM,CC(Cc1ccccc1)C(=O)Nc1scc(-c2ccc(Cl)cc2)c1C(=O)O (stereo not shown) [4-(4-chlorophenyl)-2-(2-methyl-3-phenylpropanamido)thiophene-3-carboxylic acid]
10,< 10 µM,O=C(Nc1scc(-c2cc3cccc(-c4cn[nH]c4)c3o2)c1C(=O)O)c1cc2ccccc2o1 [4-(7-(1H-pyrazol-4-yl)benzofuran-2-yl)-2-(benzofuran-2-carboxamido)thiophene-3-carboxylic acid]
11,< 10 µM,"O=C(Nc1scc(-c2ccc(Cl)cc2)c1C(=O)O)c1cc2c(F)cccn2n1 [4-(4-chlorophenyl)-2-(4-fluoropyrazolo[1,5-a]pyridine-2-carboxamido)thiophene-3-carboxylic acid]"
12,< 10 µM,"Cc1noc(C)c1C(=O)Nc1scc(-c2ccc(Cl)cc2)c1C(=O)O [4-(4-chlorophenyl)-2-(3,5-dimethylisoxazole-4-carboxamido)thiophene-3-carboxylic acid]"
13,< 10 µM,O=C(Nc1scc(-c2ccc(Cl)cc2)c1C(=O)O)c1ccno1 [4-(4-chlorophenyl)-2-(isoxazole-5-carboxamido)thiophene-3-carboxylic acid]
14,< 10 µM,O=C(Nc1scc(-c2ccc(Cl)cc2)c1C(=O)O)c1cc(-c2ccccc2)on1 [4-(4-chlorophenyl)-2-(5-phenylisoxazole-3-carboxamido)thiophene-3-carboxylic acid]
15,< 10 µM,"Cc1cccc(C)c1CCC(=O)Nc1scc(-c2ccc(Cl)cc2)c1C(=O)O [4-(4-chlorophenyl)-2-(3-(2,6-dimethylphenyl)propanamido)thiophene-3-carboxylic acid]"

# The remaining lines, values behind:
row,Structure (SMILES),IC50
1,O=C(Nc1scc(-c2ccc(C(F)(F)F)cc2)c1C(=O)O)c1cccs1 [2-(thiophene-2-carboxamido)-4-(4-(trifluoromethyl)phenyl)thiophene-3-carboxylic acid],< 10 µM
2,O=C(CSc1ccccc1)Nc1scc(-c2ccc(C(F)(F)F)cc2)c1C(=O)O [2-(2-(phenylthio)acetamido)-4-(4-(trifluoromethyl)phenyl)thiophene-3-carboxylic acid],< 10 µM
3,O=C(Nc1scc(-c2ccc(Br)cc2F)c1C(=O)O)c1nc2ccccc2o1 [2-(benzo[d]oxazole-2-carboxamido)-4-(4-bromo-2-fluorophenyl)thiophene-3-carboxylic acid],< 10 µM
4,O=C(O)c1c(-c2ccc(Br)cc2)csc1NC(=O)C(F)Cc1ccc(F)cc1Cl (stereo not shown) [4-(4-bromophenyl)-2-(3-(2-chloro-4-fluorophenyl)-2-fluoropropanamido)thiophene-3-carboxylic acid],< 10 µM
5,"O=C(Nc1scc(-c2c(F)cc(F)cc2F)c1C(=O)O)c1cc2ccccc2o1 [2-(benzofuran-2-carboxamido)-4-(2,4,6-trifluorophenyl)thiophene-3-carboxylic acid]",< 10 µM
6,Cc1ccc(-c2csc(NC(=O)c3nc4ccccc4o3)c2C(=O)O)cc1CO [2-(benzo[d]oxazole-2-carboxamido)-4-(3-(hydroxymethyl)-4-methylphenyl)thiophene-3-carboxylic acid],< 10 µM
7,"Cc1ccc(-c2csc(NC(=O)c3cnc4ccccc4n3)c2C(=O)O)c(F)c1F [4-(2,3-difluoro-4-methylphenyl)-2-(quinoxaline-2-carboxamido)thiophene-3-carboxylic acid]",< 10 µM
8,O=C(Nc1scc(-c2ccc(Br)cc2)c1C(=O)O)c1cnccn1 [4-(4-bromophenyl)-2-(pyrazine-2-carboxamido)thiophene-3-carboxylic acid],< 10 µM
9,O=C(Nc1cccc(F)c1)Nc1scc(-c2ccc(Br)cc2)c1C(=O)O [4-(4-bromophenyl)-2-(3-(3-fluorophenyl)ureido)thiophene-3-carboxylic acid],< 10 µM
10,"COc1ccc(-c2csc(NC(=O)c3cc4ccccc4o3)c2C(=O)O)c(F)c1F [2-(benzofuran-2-carboxamido)-4-(2,3-difluoro-4-methoxyphenyl)thiophene-3-carboxylic acid]",< 10 µM
11,O=C(Nc1scc(-c2ccc(OC(F)(F)F)cc2)c1C(=O)O)c1nc2ccccc2o1 [2-(benzo[d]oxazole-2-carboxamido)-4-(4-(trifluoromethoxy)phenyl)thiophene-3-carboxylic acid],< 10 µM
12,O=C(CCc1ccco1)Nc1scc(-c2ccc(Br)cc2)c1C(=O)O [4-(4-bromophenyl)-2-(3-(furan-2-yl)propanamido)thiophene-3-carboxylic acid],< 10 µM
13,"Cc1ccc(-c2csc(NC(=O)c3nc4ccc(F)cc4o3)c2C(=O)O)c(F)c1F [4-(2,3-difluoro-4-methylphenyl)-2-(6-fluorobenzo[d]oxazole-2-carboxamido)thiophene-3-carboxylic acid]",< 10 µM
14,"O=C(Nc1scc(-c2ccc(Br)cc2)c1C(=O)O)c1cn2ccccc2n1 [4-(4-bromophenyl)-2-(imidazo[1,2-a]pyridine-2-carboxamido)thiophene-3-carboxylic acid]",< 10 µM
15,CS(=O)(=O)c1csc(C(=O)Nc2scc(-c3ccc(Cl)cc3)c2C(=O)O)c1Cl [2-(3-chloro-4-(methylsulfonyl)thiophene-2-carboxamido)-4-(4-chlorophenyl)thiophene-3-carboxylic acid],< 10 µM
16,O=C(Nc1scc(-c2ccc(Br)cc2)c1C(=O)O)c1nc2ccccc2o1 [2-(benzo[d]oxazole-2-carboxamido)-4-(4-bromophenyl)thiophene-3-carboxylic acid],< 10 µM
